From ChEMBL document CHEMBL1150510 (Bioorg Med Chem Lett, 1997)

What was measured:
[1] = biological target: Serotonin 2 (5-HT2) receptor (Homo sapiens, UniProt P41595+P28223+P28335); test: In vitro binding affinity of compound against neuronal 5-hydroxytryptamine 2 receptor; format: protein assay
[2] = biological target: T1, Adrenergic receptor alpha-1 (Homo sapiens, UniProt P35348+P25100+P35368); test: In vitro binding affinity of compound against Alpha-1 adrenergic receptor; format: protein assay
T1 sequence (P35348 whole entry): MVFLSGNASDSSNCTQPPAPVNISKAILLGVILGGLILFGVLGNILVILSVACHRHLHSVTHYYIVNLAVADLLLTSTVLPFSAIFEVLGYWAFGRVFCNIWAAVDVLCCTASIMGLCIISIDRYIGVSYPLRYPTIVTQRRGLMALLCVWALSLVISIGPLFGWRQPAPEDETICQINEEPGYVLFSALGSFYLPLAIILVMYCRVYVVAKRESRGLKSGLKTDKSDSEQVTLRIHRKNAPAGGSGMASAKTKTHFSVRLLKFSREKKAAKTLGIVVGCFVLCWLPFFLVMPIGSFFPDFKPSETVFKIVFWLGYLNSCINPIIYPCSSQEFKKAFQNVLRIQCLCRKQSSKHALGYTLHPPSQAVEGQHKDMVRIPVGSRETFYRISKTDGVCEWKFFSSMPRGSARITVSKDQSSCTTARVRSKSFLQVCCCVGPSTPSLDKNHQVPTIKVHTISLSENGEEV
T1 sequence (P25100 whole entry): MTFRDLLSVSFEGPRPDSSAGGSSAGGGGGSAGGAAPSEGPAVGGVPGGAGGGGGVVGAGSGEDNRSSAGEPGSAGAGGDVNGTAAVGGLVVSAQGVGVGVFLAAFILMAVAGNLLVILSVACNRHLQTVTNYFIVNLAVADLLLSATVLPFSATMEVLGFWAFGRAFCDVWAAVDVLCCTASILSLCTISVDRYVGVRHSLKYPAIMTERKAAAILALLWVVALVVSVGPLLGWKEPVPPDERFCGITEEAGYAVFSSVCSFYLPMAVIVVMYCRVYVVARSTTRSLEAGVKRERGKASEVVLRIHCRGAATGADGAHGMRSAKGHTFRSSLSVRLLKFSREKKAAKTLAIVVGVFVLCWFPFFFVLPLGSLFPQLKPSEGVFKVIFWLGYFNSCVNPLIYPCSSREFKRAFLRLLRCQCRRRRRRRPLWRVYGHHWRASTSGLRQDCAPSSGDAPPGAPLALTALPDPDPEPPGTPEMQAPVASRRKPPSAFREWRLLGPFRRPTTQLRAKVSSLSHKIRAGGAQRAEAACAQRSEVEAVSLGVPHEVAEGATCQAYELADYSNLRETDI
T1 sequence (P35368 whole entry): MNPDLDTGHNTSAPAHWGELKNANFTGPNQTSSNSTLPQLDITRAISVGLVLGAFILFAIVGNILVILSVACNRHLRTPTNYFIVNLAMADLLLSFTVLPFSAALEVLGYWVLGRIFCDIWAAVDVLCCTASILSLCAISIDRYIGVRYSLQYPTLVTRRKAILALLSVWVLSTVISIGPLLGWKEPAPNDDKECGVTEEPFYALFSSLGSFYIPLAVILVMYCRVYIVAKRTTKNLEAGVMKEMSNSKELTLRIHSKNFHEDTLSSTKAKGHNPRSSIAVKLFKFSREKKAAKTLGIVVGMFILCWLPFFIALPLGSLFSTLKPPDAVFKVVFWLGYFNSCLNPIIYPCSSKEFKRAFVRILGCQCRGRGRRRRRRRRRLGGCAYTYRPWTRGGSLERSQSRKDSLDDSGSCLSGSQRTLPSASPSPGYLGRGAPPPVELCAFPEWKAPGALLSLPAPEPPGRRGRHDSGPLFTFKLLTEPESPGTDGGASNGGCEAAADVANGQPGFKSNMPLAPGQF

[3] = biological target: Adrenergic receptor beta (Homo sapiens, UniProt P08588+P07550+P13945); test: In vitro binding affinity of compound against neuronal Beta adrenergic receptor; format: protein assay
[4] = biological target: D(2) dopamine receptor (Homo sapiens, UniProt P14416); test: In vitro binding affinity of compound against neuronal Dopamine receptor D2
[5] = biological target: D(1A) dopamine receptor (Homo sapiens, UniProt P21728); test: In vitro binding affinity of compound against dopamine neuronal Dopamine receptor D1
[6] = biological target: GABA-A receptor; anion channel; test: In vitro binding affinity for neuronal GABA-A receptor; format: protein-complex assay
[7] = biological target: Histamine H1 receptor (Homo sapiens, UniProt P35367); test: In vitro binding affinity of compound against histamine H1 neuronal receptor
[8] = system: Mus musculus; test: In vivo minimum effective dose of compound to block the apomorphine-induced climbing behavior in mice after peroral administration; format: functional
[9] = biological target: Muscarinic acetylcholine receptor; test: In vitro binding affinity of compound against muscarinic neuronal receptor; format: protein assay
[10] = biological target: T2, Adrenergic receptor alpha-2 (Homo sapiens, UniProt P08913+P18825+P18089); test: In vitro binding affinity of compound against neuronal alpha-2 adrenergic receptor; format: protein assay
T2 sequence (P08913 whole entry): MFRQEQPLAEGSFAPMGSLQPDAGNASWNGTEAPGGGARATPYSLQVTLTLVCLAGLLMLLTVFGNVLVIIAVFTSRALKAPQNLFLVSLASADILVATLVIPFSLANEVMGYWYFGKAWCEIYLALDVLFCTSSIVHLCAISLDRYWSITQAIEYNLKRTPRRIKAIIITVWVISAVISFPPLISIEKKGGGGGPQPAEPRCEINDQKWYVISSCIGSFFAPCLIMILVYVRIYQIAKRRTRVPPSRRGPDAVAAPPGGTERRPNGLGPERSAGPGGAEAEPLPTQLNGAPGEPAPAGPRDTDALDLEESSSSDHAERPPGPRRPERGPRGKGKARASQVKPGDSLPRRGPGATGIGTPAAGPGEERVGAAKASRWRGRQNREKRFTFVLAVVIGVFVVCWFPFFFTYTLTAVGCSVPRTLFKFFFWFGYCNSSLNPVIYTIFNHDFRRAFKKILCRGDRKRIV
T2 sequence (P18825 whole entry): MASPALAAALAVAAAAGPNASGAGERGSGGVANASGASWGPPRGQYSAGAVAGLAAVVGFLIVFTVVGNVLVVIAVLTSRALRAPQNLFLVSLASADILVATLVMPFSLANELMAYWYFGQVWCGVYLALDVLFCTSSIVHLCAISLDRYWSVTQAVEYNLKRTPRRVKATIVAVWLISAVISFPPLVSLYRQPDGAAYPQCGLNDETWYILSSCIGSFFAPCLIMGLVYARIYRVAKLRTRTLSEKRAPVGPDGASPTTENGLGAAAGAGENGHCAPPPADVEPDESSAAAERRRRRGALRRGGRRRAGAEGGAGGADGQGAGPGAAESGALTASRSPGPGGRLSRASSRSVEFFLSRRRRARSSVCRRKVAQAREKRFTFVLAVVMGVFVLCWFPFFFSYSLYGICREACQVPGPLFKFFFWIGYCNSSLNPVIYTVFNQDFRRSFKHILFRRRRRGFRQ
T2 sequence (P18089 whole entry): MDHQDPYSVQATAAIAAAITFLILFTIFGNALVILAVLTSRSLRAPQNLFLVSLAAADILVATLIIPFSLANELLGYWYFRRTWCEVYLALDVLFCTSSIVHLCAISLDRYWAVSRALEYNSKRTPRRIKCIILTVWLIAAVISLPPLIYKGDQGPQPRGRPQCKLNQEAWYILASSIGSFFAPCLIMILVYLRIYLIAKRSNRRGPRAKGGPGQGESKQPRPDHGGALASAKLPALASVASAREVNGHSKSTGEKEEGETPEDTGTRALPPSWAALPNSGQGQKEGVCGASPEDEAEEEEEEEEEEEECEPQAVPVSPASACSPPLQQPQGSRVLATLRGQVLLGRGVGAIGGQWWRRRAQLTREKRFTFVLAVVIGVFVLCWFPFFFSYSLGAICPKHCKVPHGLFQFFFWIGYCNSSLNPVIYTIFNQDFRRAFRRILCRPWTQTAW

[11] = biological target: GABA-A receptor; anion channel; test: In vitro binding affinity for neuronal GABA-A benzodiazepine receptor; format: protein-complex assay
[12] = system: Mus musculus; test: In vivo minimum effective dose of compound to block the apomorphine-induced climbing behavior in mice after intravenous administration; format: functional
[13] = system: Mus musculus; test: In vivo minimum effective dose of compound to block the apomorphine-induced climbing behavior in mice after subcutaneous administration; format: functional
[14] = system: Rattus norvegicus; test: In vivo minimum effective dose of compound to block the conditioned avoidance behavior in rats after intravenous administration; format: functional
[15] = system: Rattus norvegicus; test: In vivo minimum effective dose of compound to block the conditioned avoidance behavior in rats after peroral administration; format: functional

Chain of D(2) dopamine receptor (P14416 whole entry): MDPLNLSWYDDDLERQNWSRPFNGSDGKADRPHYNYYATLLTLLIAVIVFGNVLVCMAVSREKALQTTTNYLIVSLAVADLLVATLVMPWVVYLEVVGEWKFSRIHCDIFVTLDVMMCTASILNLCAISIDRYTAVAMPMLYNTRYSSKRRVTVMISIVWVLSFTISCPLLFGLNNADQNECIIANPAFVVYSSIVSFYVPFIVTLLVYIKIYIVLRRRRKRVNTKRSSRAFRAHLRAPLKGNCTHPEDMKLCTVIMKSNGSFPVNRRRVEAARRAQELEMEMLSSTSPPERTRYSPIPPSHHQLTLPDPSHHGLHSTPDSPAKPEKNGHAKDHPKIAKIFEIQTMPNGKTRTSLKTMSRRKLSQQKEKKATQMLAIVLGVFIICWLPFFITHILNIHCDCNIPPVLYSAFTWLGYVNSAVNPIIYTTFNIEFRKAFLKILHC
Chain of D(1A) dopamine receptor (P21728 whole entry): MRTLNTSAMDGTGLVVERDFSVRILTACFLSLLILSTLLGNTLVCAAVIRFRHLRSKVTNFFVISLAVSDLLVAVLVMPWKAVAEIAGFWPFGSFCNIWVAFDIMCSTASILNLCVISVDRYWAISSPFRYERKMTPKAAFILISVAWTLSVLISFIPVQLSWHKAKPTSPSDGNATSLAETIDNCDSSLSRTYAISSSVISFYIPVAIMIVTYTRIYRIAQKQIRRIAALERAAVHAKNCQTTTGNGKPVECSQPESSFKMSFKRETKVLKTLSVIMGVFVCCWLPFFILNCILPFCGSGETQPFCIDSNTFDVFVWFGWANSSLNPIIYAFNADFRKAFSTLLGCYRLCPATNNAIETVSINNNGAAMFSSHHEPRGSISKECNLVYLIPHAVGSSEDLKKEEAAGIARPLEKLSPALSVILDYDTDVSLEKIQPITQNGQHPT
Chain of Histamine H1 receptor (P35367 whole entry): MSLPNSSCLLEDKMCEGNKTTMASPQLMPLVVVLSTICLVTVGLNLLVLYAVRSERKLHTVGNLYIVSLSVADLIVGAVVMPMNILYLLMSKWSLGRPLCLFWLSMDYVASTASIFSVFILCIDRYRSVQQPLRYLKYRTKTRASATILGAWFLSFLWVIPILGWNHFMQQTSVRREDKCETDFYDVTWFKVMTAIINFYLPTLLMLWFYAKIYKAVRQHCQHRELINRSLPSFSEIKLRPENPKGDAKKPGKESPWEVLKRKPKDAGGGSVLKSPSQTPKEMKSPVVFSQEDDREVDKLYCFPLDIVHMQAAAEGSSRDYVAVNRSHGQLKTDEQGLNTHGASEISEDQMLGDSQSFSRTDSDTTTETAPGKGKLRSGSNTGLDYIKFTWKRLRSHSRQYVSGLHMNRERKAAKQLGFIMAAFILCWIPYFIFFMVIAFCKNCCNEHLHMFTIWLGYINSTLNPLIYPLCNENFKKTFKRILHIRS

SMILES	Ki [1]	Ki [2]	Ki [3]	Ki [4]	Ki [5]	Ki [6]	Ki [7]	EDmin [8]	Ki [9]	Ki [10]	Ki [11]	EDmin [12]	EDmin [13]	EDmin [14]	EDmin [15]
CN1CCN(C2=Nc3ccccc3Nc3sc(CO)cc32)CC1	0.018 µM	0.012 µM	> 10 µM	0.022 µM	0.066 µM	> 10 µM	0.006 µM	20 mg/kg	0.501 µM	0.783 µM	> 1 µM				
Cc1cc2c(s1)Nc1ccccc1N=C2N1CC[N+](C)([O-])CC1	0.112 µM	0.266 µM	> 10 µM	0.119 µM	0.395 µM	> 10 µM	0.087 µM		0.662 µM	> 10 µM	> 10 µM	>10 mg/kg	12.5 mg/kg	>4 mg/kg	>25 mg/kg
Cc1cc2c(s1)Nc1ccccc1N=C2N1CCNCC1 [DESMETHYLOLANZAPINE]	0.023 µM	0.08 µM	> 10 µM	0.009 µM	0.203 µM	> 10 µM	0.022 µM		0.333 µM	1 µM	> 10 µM	>10 mg/kg	50 mg/kg	>4 mg/kg	>25 mg/kg
Cc1cc2c(s1)Nc1ccccc1N=C2N1CCN(C)CC1 [OLANZAPINE]						> 10 µM		2.5 mg/kg			> 10 µM	1 mg/kg	0.625 mg/kg	0.25 mg/kg	2.5 mg/kg
